Key:
Format in all cases: functional
[1] = system: Acanthocheilonema viteae; assay: Compound was tested in vivo for anti-filarial activity against A. viteae through oral route of administration at 200 mg/kg for 5 days and sterilization of female worms was observed
[2] = system: Acanthocheilonema viteae; assay: Compound was tested in vivo for anti-filarial activity against A. viteae through oral route of administration at 200 mg/kg for 5 days and macrofilaricidal response was observed
[3] = system: Acanthocheilonema viteae; assay: Compound was tested in vivo for anti-filarial activity against A. viteae through oral route of administration at 200 mg/kg for 5 days and microfilaricidal response was observed
[4] = system: Acanthocheilonema viteae; assay: Compound was tested in vivo for anti-filarial activity against A. viteae through oral route of administration at 200 mg/kg for 5 days and sterilization of inactive worms was observed

Row | Structure (SMILES) | Activity [1] | Reduction [2] | Reduction [3] | Activity [4]
1 | CCCCCCCNc1ccccc1 | 0% | 0% | 69% | –
2 | CCCCNc1ccc(F)c(Cl)c1 | – | 0% | 32% | 0%
3 | CCCCCCNc1ccc(F)cc1 | 0% | 50% | 0% | –
4 | CCCCN(CCCC)c1ccc(F)cc1 | – | 0% | 81% | 50%
5 | CCCCN(CCCC)c1ccccc1 | – | 0% | 77% | 55%
6 | CCCCCCNc1ccc(F)c(Cl)c1 | 0% | 88% | 50% | –
7 | CCCCCCNc1ccccc1 | 0% | 50% | 58% | –
8 | CCCCN(CCCC)C1CCCCC1 | 50% | 0% | 93% | –
9 | CCCCCCNC1CCCCC1 | 0% | 100% | 0% | –
